This note sets out measurements from ChEMBL document CHEMBL1144449, “Design, synthesis, and evaluation of orally active 4-(2,4-difluoro-5-(methoxycarbamoyl)phenylamino)pyrrolo[2,1-f][1,2,4]triazines as dual vascular endothelial growth factor receptor-2 and fibroblast growth factor receptor-1 inhibitors” (J Med Chem, 2005).

Bounds are passed on as bounds.

The nature of series [1]: Mean residence time determined after administration of 5 mg/kg dose iv in mouse. Particulars: in vivo. The class given is ADME, organism-based. More on the design: dose 5 mg/kg, route intravenous.
Series [2] has as its system Mus musculus. The series can be described thus: Tumor growth inhibition of L2987 human lung carcinoma xenografts implanted subcutaneously in athymic mouse after oral administration of 150 mg/kg/day. The class given is functional. Particulars: read-out: TGI. In general terms: In xenograft studies the graft and the host belong to different species.
Series [3] has as its system Mus musculus. The series can be described thus: Tumor growth inhibition of L2987 human lung carcinoma xenografts implanted subcutaneously in athymic mouse after oral administration of 50 mg/kg/day. It counts as functional. The conditions noted are these: read-out: TGI.
The target of series [4] is Protein kinase C alpha type (Homo sapiens, UniProt P17252). The series can be described thus: Inhibition of human protein kinase C alpha.
Series [5] in a line: Plasma level after 1 hour of oral administration of 10 mg/kg compound in mouse.
Series [6] is described as follows: Maximum plasma concentration determined after administration of 10 mg/kg dose po in mouse. The class given is ADME, organism-based. Further details: dose 10 mg/kg, route oral.
Series [7] in a line: Maximum plasma concentration determined after administration of 5 mg/kg dose iv in mouse. The class given is ADME, organism-based. Further details: dose 5 mg/kg, route intravenous.
A short description of series [8]: Systemic plasma clearance determined after administration of 5 mg/kg dose iv in mouse. The class given is ADME, organism-based. Further details: dose 5 mg/kg, route intravenous.
Series [9] in a line: Mean residence time determined after administration of 10 mg/kg dose po in mouse. It counts as ADME, organism-based. Further details: dose 10 mg/kg, route oral. Particulars: in vivo.
A short description of series [10]: Total time required to reach maximum plasma concentration after administration of 10 mg/kg dose po in mouse. More on the design: dose 10 mg/kg, route oral. The class given is ADME, organism-based.
Series [11] in a line: Plasma level after 4 hours of oral administration of 10 mg/kg compound in mouse.
The target of series [12] is Fibroblast growth factor receptor (Homo sapiens, UniProt P22607+P11362+P22455+P21802). The series can be described thus: Inhibition of FGF-stimulated human umbilical vein endothelial cell proliferation. The class given is functional, cell-based.
Series [13] in a line: Oral bioavailability determined after administration of 10 mg/kg dose po in mouse. It counts as ADME, organism-based. The conditions noted are these: in vivo.
The target of series [14] is Receptor tyrosine-protein kinase erbB-2 (Homo sapiens, UniProt P04626). Put plainly: Inhibition against human HER2 kinase.
A short description of series [15]: Area under curve determined after administration of 10 mg/kg dose po in mouse. The class given is ADME, organism-based. More on the design: dose 10 mg/kg, route oral. Particulars: in vivo.
For series [16], the target named is Fibroblast growth factor receptor 1 (Homo sapiens, UniProt P11362). Put plainly: Inhibition of human fibroblast growth factor receptor 1.
Series [17] addresses Cyclin-dependent kinase 2 (Homo sapiens, UniProt P24941). Put plainly: Inhibition of human cyclin-dependent kinase 2.
Series [18] concerns the target Tyrosine-protein kinase Lck (Homo sapiens, UniProt P06239). Put plainly: Inhibition of human p56 lck tyrosine kinase.
Series [19] can be described thus: Half-life determined after administration of 5 mg/kg dose iv in mouse. It counts as ADME, organism-based. More on the design: dose 5 mg/kg, route intravenous. The conditions noted are these: in vivo.
Series [20] concerns Mus musculus. The series can be described thus: Tumor growth inhibition of L2987 human lung carcinoma xenografts implanted subcutaneously in athymic mouse after oral administration of 100 mg/kg/day. It counts as functional. Particulars: read-out: TGI.
Series [21] can be described thus: Steady-state volume of distribution determined after administration of 5 mg/kg dose iv in mouse. The class given is ADME, organism-based. More on the design: dose 5 mg/kg, route intravenous. The conditions noted are these: in vivo, read-out: Vss.
Series [22] in a line: Half-life determined after administration of 10 mg/kg dose po in mouse. The class given is ADME, organism-based. More on the design: dose 10 mg/kg, route oral. Particulars: in vivo.
Series [23] can be described thus: Area under curve determined after administration of 5 mg/kg dose iv in mouse. It counts as ADME, organism-based. Further details: dose 5 mg/kg, route intravenous. The conditions noted are these: in vivo.

Chain of Receptor tyrosine-protein kinase erbB-2 (P04626 whole entry): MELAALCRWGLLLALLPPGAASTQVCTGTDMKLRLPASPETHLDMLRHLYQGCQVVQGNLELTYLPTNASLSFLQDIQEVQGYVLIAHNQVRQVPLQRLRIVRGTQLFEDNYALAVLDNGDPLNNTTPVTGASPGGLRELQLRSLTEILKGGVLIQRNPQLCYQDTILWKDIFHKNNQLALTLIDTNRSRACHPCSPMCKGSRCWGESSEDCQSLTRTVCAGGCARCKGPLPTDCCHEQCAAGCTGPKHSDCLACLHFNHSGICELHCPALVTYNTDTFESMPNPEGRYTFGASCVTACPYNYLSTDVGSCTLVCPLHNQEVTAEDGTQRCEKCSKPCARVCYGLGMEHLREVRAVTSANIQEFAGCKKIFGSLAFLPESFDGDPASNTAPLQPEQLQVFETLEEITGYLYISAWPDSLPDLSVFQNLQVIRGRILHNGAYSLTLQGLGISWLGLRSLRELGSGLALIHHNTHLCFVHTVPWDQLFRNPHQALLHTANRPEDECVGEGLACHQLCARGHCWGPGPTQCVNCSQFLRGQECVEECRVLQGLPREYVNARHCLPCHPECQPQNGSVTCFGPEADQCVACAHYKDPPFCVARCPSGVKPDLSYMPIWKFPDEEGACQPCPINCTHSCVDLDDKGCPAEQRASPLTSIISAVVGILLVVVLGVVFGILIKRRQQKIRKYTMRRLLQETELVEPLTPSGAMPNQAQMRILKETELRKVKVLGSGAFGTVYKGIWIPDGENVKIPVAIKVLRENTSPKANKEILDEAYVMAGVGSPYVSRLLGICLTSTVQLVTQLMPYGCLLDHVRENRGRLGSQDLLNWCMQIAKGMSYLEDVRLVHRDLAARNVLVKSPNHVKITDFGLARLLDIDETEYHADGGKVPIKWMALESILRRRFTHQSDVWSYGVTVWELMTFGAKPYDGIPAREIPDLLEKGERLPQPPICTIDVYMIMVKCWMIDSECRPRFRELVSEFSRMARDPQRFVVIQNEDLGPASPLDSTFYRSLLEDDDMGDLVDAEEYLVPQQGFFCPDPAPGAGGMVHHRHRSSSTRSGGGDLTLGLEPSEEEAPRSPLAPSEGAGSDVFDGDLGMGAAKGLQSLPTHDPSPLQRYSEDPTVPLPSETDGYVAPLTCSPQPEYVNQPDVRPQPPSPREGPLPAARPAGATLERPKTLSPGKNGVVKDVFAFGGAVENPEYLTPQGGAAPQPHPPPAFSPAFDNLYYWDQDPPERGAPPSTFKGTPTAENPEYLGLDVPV
Chain of Tyrosine-protein kinase Lck (P06239 whole entry): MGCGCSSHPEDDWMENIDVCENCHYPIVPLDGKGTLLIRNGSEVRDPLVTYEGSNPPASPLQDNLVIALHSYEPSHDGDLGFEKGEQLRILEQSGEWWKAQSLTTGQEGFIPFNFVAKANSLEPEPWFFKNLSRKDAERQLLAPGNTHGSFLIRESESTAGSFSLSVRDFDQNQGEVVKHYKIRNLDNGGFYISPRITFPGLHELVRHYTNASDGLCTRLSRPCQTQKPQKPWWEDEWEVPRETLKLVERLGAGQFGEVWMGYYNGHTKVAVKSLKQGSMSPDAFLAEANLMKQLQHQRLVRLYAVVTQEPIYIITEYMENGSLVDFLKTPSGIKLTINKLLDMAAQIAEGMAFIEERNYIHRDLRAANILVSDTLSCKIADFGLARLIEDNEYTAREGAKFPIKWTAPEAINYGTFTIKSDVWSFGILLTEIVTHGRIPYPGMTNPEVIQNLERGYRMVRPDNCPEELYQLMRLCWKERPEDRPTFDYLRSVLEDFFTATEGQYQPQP
Chain of Fibroblast growth factor receptor 1 (P11362 whole entry): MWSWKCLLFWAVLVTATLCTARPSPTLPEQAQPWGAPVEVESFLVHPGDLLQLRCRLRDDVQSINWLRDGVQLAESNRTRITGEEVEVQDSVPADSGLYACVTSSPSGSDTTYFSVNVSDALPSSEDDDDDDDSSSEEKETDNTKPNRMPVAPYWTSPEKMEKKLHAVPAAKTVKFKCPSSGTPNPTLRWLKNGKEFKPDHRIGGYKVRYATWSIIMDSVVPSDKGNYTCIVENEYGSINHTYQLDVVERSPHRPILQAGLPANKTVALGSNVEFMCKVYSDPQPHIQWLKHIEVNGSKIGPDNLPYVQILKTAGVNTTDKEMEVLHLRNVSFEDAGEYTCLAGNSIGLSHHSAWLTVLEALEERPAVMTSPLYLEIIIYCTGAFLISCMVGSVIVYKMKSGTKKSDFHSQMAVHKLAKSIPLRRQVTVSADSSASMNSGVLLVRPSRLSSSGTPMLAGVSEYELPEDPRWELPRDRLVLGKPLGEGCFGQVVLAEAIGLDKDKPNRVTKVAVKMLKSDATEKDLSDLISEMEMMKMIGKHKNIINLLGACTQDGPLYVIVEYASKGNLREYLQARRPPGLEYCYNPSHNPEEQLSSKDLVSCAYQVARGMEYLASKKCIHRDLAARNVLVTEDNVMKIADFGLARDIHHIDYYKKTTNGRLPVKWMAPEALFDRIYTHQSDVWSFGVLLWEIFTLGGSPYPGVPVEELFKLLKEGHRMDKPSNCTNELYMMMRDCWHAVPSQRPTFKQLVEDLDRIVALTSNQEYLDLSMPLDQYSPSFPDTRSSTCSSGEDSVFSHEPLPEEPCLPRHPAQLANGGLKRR

The term MRT denotes a mean duration of stay, worked out from the concentration-time curve. As a reminder, the IC50 is the concentration that inhibits the measured activity by half. High values mean a need for much substance, low ones inhibition by little substance. The term Cmax denotes the maximum level reached in the sampled fluid or tissue. In general, clearance refers to a measure of how efficiently the substance is removed, as volume per time. A low value points to inefficient removal. By Tmax is commonly meant the time from dosing to the highest level. Broadly, the bioavailability is dose-corrected exposure relative to a reference, in per cent. A low value points to little systemic uptake. For orientation: AUC means the area under the concentration-time curve, a measure of exposure. A high value points to high exposure. For orientation: half-life means the time needed for the level to fall by half in the phase considered. A high value points to slow loss. Regarding `CONC(=O)c1cc(Nc2ncnn3cc(-c4nnc(C(F)(F)S(C)(=O)=O)o4)c(C(C)C)c23)c(F)cc1F`, the figures for the MRT in series [1] and in series [9] were 4.9 h and 5.2 h, respectively. In the series on Mus musculus [2], the inhibition in vivo at 150 mg/kg/day is 94.2%. For the same compound, in the series with Mus musculus [3], the inhibition in vivo at 50 mg/kg/day was 63.9%. Also, the half-inhibitory concentration (IC50) was greater than 50 µM in [4]; 0.13 µM in [12]; greater than 25 µM in series [14]; 0.22 µM in series [16]; greater than 50 µM in series [17]; 7.8 µM in series [18]. Moreover, the concentration at 1 h in series [5] worked out at 26.6 µM. Besides, the figures for the highest concentration (Cmax) in [6] and in [7] were 27.7 µM and 23.7 µM, respectively. The compound also had a clearance in series [8] of 1.53 mL/min/kg. Moreover, in series [10], the time of peak concentration (Tmax) came out at 0.5 h. Further, the concentration at 4 h in series [11] was 13.8 µM. Further, in [13], the bioavailability is 79%. For the same compound, the area under the curve (AUC) in series [15] worked out at 155 µM·h; in series [23] it was 97.4 µM·h. The figures for the half-life in series [19] and in [22] were 2.5 h and 3.6 h, respectively. Further, the inhibition in vivo at 100 mg/kg/day in the series with Mus musculus [20] stood at 87.5%. For the same compound, the Vd in [21] stood at 0.45 L/kg.
